Measurements reported in patent US20100112048A1, “Dosage Regimen and Medicament For Reducing Risk of Onset or Progression of Dementia by Administration of Specific Vitamins and Nsaid” (priority 2006, published 2010).

How the values were obtained:
[1] = test system: mortality of elderly Cache County participants; conditions: in vivo
Method: Also, to examine the effect of these constituents on differential mortality, logistic regression was used to estimate the relative risk of mortality over the course of follow-up among the 5 user groups. These analyses, were controlled for age, sex, education, and APOE genotype status. All analyses were performed using SAS statistical software package version 8.0.
Also, an analysis was effected to assess whether there was an increased risk of mortality among any of the user groups that might potentially bias the observed associations with cognitive performance over time.

[2] = test system: mortality of the elderly; conditions: placebo-controlled trial in the elderly; cited from earlier work
[3] = test system: mortality of 39,876 healthy participants; conditions: cited from earlier work

For vitamin E, the “harm of vitamin E, subgroup analysis (in words)” value [1] is given as “may only be harmful among elderly with prior cardiovascular disease”, the “mortality associated with using vitamin E (in words)” value [2] is given as “did not note any increased mortality” and the “cardiovascular mortality (in words)” value ([3]; healthy women) is given as “trend toward decreased cardiovascular mortality”. The “mortality vs placebo (in words)” value ([3]; monitored for over 10 years) was “no significant difference in mortality”.
